37 compounds from patent US8906916B2, “Pyrimidine derivatives as FAK inhibitors” (Merck Patent GmbH, priority 2010, dated 2014) can be followed below.

The target of assay [1] is focal adhesion kinase (FAK) (Homo sapiens, UniProt Q05397). In words: FAK kinase assay (autophosphorylation), 384-well flashplate. It is filed as biochemical. Particulars: FAK inhibition, enzymatic autophosphorylation assay, 1 μM ATP. The method, then:
FAK Kinase Assay (Autophosphorylation)
The focal adhesion kinase (FAK) assay is carried out either as a 384-well flashplate assay (for example for Topcount measurements) or as a 384-well image flashplate assay (for LEADseeker measurements). 2 nM FAK, 400 nM biotinylated substrate (His-TEV-hsFAK (31 686)(K454R) x biotin) and 1 μM ATP (to which […] of 33P-ATP/well has been added) are incubated at 30° C. for 2 hours with or without test compound in a total volume of 50 μl (60 mM Hepes, 10 mM MgCl2, 1.2 mM dithiothreitol, 0.02% of Brij35, 0.1% of BSA, pH 7.5). The reaction is stopped using 25 μl of 200 mM EDTA. After 30 min at 30° C., the liquid is removed, and each well is washed three times with 100 μl of 0.9% sodium chloride solution. Non-specific reaction is determined in the presence of 1 μM EMD 1076893/0(PF-562271). The radioactivity is measured using Topcount (in the case of the use of flashplates) or using LEADseeker (in the case of the use of image flashplates). Results (for example IC50 values) are calculated using, for example, a Symyx Assay Explorer.

In another assay the target is T1, FAK (Homo sapiens, UniProt Q05397).
T1 construct: HT29 cells are sown out with 30,000 cells per well; endogenous in cells; host or cells: HT29
T1 sequence (Q05397 whole entry): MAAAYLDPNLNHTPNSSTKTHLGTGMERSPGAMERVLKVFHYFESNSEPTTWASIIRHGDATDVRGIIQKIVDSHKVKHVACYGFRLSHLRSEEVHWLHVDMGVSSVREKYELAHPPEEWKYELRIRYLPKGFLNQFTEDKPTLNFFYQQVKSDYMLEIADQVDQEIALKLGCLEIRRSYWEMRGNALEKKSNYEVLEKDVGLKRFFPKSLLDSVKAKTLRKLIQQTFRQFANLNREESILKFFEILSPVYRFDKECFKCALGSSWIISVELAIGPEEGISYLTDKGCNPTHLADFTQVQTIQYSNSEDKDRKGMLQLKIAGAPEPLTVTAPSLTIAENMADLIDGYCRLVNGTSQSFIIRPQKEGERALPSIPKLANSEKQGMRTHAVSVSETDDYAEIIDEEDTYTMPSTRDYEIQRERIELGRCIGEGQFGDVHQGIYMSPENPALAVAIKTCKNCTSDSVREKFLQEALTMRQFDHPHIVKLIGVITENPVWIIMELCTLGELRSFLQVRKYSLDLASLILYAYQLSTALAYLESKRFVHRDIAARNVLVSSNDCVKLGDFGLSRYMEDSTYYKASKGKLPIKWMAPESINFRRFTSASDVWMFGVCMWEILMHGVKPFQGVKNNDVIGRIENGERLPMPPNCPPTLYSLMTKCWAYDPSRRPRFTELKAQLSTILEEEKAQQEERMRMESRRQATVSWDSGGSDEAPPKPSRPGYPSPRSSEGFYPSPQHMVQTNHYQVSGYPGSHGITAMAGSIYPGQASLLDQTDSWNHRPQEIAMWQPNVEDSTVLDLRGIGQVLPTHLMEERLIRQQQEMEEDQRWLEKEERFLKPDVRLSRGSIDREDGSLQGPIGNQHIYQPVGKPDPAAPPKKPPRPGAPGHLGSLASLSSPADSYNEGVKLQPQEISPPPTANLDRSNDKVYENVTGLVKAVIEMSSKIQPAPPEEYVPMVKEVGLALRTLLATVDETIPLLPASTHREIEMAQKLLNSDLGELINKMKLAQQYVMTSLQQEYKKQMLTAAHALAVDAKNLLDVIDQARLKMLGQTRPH
In words: Cellular testing of FAK kinase inhibitors: autophosphorylation of FAK at tyrosine 397 in HT29 cells (Luminex). It is filed as cell-based. Particulars: FAK inhibition, P-Y397-FAK in HT29 cells, 30 min, serum-free. How it is done:
Method for the Cellular Testing of FAK Kinase Inhibitors
For analysis of the cellular activity of FAK, the extent of autophosphorylation of FAK at tyrosine 397 is determined with the aid of a Luminex-based assay in the 96-well format. HT29 cells are sown out with 30,000 cells per well in 100 μl of medium (90% of DMEM/10% of FCS) and incubated on the following day for 30 min with a serial dilution of the test substance (7 concentrations) under serum-free conditions. The cells are subsequently lysed using 90 μl of lysis buffer (20 mM tris/HCl pH 8.0, 150 mM NaCl, 1% of NP40, 10% of glycerol, 1% of phosphatase inhibitor II, 20 mM p-glycerol phosphate, 0.1% of protease inhibitor cocktail III, 0.01% of benzonase) per well, and the lysates are separated off from insoluble cell constituents by means of centrifugation through a 96-well filter plate (0.65 μm). The lysates are incubated at 4° C. overnight with shaking with Luminex beads to which an anti-total FAK antibody is coupled. The detection is carried out on the following day by addition of a P-Y397-FAK antibody and a species-specific PE-labelled secondary antibody. P-Y397-FAK is detected by measurement in the Luminex100 instrument by determination of 100 events per cavity in a measurement time of 60 sec. As pharmacological blank, the signals obtained from cells treated with 30 μM of an FAK reference inhibitor are subtracted from all other batches. The control value used for maximum phosphorylation of FAK at Y397 are the signals from cells treated only with the solvent (0.3% of DMSO). The values of the batches treated with test substance are calculated therefrom as percent of control, and IC50 values are determined by means of Assay Explorer.

SMILES strings stand for the structures.

focal adhesion kinase (FAK), sequence (Q05397 whole entry): as above

As usually defined, the IC50 is the concentration at which inhibition is half-maximal. A higher IC50 goes with weaker potency. As for `CN(c1ccccc1CCc1ccnc(Nc2ccc(S(C)(=O)=O)cc2)n1)S(C)(=O)=O` [A1, N-(2-{2-[2-(4-methanesulfonylphenylamino)pyrimidin-4-yl]ethyl}-phenyl)-N-methylmethanesulfonamide], the IC50 in assay [1] lay within 3 to 50 µM.
Consider `CN(c1ccccc1CCc1ccnc(Nc2ccc3c(c2)CCC(=O)N3)n1)S(C)(=O)=O` [A2, N-methyl-N-(2-{2-[2-(2-oxo-1,2,3,4-tetrahydroquinolin-6-ylamino)pyrimidin-4-yl]ethyl}phenyl)methanesulfonamide], for which the IC50 in assay [1] was under 0.3 µM; against FAK it was 3 to 50 µM.
`CS(=O)(=O)c1cccc(CCc2ccnc(Nc3ccc4c(c3)CCC(=O)N4)n2)c1` [A3]: the IC50 in assay [1] lay in the range of 3 to 50 µM.
The same measure, in the same setting: the value for `CN(c1ccccc1CCc1ccnc(Nc2ccc3c(c2)CC(=O)N3)n1)S(C)(=O)=O` [A5] was under 0.3 µM; that for `CN(c1ncccc1CCc1ccnc(Nc2ccc3c(c2)CC(=O)N3)n1)S(C)(=O)=O` [A6] was 0.3 to 3 µM; that for `CN(c1ncccc1CCc1ccnc(Nc2ccc3c(c2)CCC(=O)N3)n1)S(C)(=O)=O` [A7] was 0.3 to 3 µM.
In turn, `N#CCc1ccccc1CCc1ccnc(Nc2ccc3c(c2)CC(=O)N3)n1` [A9] registered an IC50 in assay [1] of 0.3 to 3 µM.
On to `N#CCc1ccc(F)cc1CCc1ccnc(Nc2ccc3c(c2)CC(=O)N3)n1` [A11], for which the IC50 in assay [1] was 0.3 to 3 µM.
In assay [1], `N#CC1(c2ccccc2CCc2ccnc(Nc3ccc4c(c3)CC(=O)N4)n2)CCC1` [A13] yielded an IC50 of 0.3 to 3 µM.
For the compound `N#CC1(c2ncccc2CCc2ccnc(Nc3ccc4c(c3)CC(=O)N4)n2)CNC1` [A16, 3-(3-{2-[2-(2-oxo-2,3-dihydro-1H-indol-5-ylamino)pyrimidin-4-yl]ethyl}pyridin-2-yl)azetidine-3-carbonitrile], the concentration for half-maximal inhibition (IC50) in assay [1] was 3 to 50 µM.
`CN(c1ncccc1CCc1ccnc(Nc2ccc3[nH]c(=O)oc3c2)n1)S(C)(=O)=O` [A20] gave an IC50 in assay [1] of 0.3 to 3 µM.
The same measure, in the same setting: the value for `CN1C(=O)Cc2cc(Nc3nccc(CCc4cccnc4N(C)S(C)(=O)=O)n3)ccc21` [A21] was 0.3 to 3 µM; that for `CN(c1ncccc1CCc1ccnc(Nc2cccc(C#N)c2)n1)S(C)(=O)=O` [A22] was 3 to 50 µM.
Compound `CN(c1ncccc1CCc1ccnc(NCc2ccc(=O)[nH]n2)n1)S(C)(=O)=O` [A24] showed an IC50 at FAK of 3 to 50 µM.
Consider `CN(c1ncccc1CCc1ccnc(Nc2ccc3c(c2)n(C)c(=O)n3C)n1)S(C)(=O)=O` [A25], for which the values for the IC50 (in assay [1]; at FAK) were 0.3 to 3 µM and 3 to 50 µM, respectively.
In the case of `CN(c1ccccc1CCc1ccnc(Nc2ccc3[nH]c(=O)oc3c2)n1)S(C)(=O)=O` [A27], the IC50 in assay [1] fell in the range of 0.3 to 3 µM.
`CN(c1ccccc1CCc1ccnc(Nc2cccc(C#N)c2)n1)S(C)(=O)=O` [A28] registered an IC50 in assay [1] of 0.3 to 3 µM.
The same measure, in the same setting: the value for `CN(c1ccccc1CCc1ccnc(Nc2ccc(F)c(C#N)c2)n1)S(C)(=O)=O` [A29] was 3 to 50 µM; that for `CN(c1ccccc1CCc1ccnc(Nc2ccc3sc(=O)[nH]c3c2)n1)S(C)(=O)=O` [A30] was 0.3 to 3 µM.
Turning to `CC(=O)N1CCc2cc(Nc3nccc(CCc4ccccc4N(C)S(C)(=O)=O)n3)ccc21` [A31], the IC50 in assay [1] is under 0.3 µM; against FAK it was 3 to 50 µM.
`CNC(=O)Cc1ccc(Nc2nccc(CCc3ccccc3N(C)S(C)(=O)=O)n2)cc1` [A32] displayed an IC50 in assay [1] of 0.3 to 3 µM.
In the case of `CN(c1ccccc1CCc1ccnc(Nc2ccc(N3CCOCC3=O)cc2)n1)S(C)(=O)=O` [A33], in assay [1], the IC50 is 0.3 to 3 µM.
Regarding `CN(c1ccccc1CCc1ccnc(Nc2ccc(NC(=O)c3cccnc3)cc2)n1)S(C)(=O)=O` [A34], the IC50 was under 0.3 µM in assay [1] and 0.3 to 3 µM on FAK.
Take `CN(c1ccccc1CCc1ccnc(Nc2ccc(N3CCCC3=O)cc2)n1)S(C)(=O)=O` [A35]: in assay [1], the IC50 lay in the range of 0.3 to 3 µM.
On the same count and under the same terms, the value for `CN(c1ccccc1CCc1ccnc(Nc2cc(Cl)c(N3CCCC3=O)c(Cl)c2)n1)S(C)(=O)=O` [A36] was 0.3 to 3 µM.
`CN(c1ccccc1CCc1ccnc(Nc2ccc(N3CCCCC3=O)c(C#N)c2)n1)S(C)(=O)=O` [A37] gave a half-inhibitory concentration (IC50) against FAK of 0.3 to 3 µM.
For the compound `CN(c1ccccc1CCc1ccnc(Nc2ccc(N3C(=O)c4ccccc4C3=O)cc2)n1)S(C)(=O)=O` [A38], in assay [1], the IC50 lay within 0.3 to 3 µM.
Consider `CN(c1ncccc1CCc1ccnc(Nc2ccc(N3CCCC3=O)cc2)n1)S(C)(=O)=O` [A39], for which the IC50 in assay [1] is 0.3 to 3 µM.
As for `CN(c1ncccc1CCc1ccnc(Nc2ccc(NC(=O)c3cccnc3)cc2)n1)S(C)(=O)=O` [A40], the IC50 in assay [1] was in the range of 0.3 to 3 µM.
As to `CN(c1ncccc1CCc1ccnc(Nc2ccc(N3CCOCC3=O)cc2)n1)S(C)(=O)=O` [A41], the IC50 in assay [1] lay within 0.3 to 3 µM.
The same measure, in the same setting: the value for `CN(c1ncccc1CCc1ccnc(Nc2ccc(N3C(=O)c4ccccc4C3=O)cc2)n1)S(C)(=O)=O` [A43] was 0.3 to 3 µM; that for `Cc1cnc(N(C)S(C)(=O)=O)c(CCc2ccnc(Nc3ccc4c(c3)CC(=O)N4)n2)c1` [A44] was under 0.3 µM; that for `N#CC1(c2ccc(F)cc2CCc2ccnc(Nc3ccc4c(c3)CC(=O)N4)n2)CCC1` [A45] was under 0.3 µM.
For `N#CC1(c2cc(F)ccc2CCc2ccnc(Nc3ccc4c(c3)CC(=O)N4)n2)CCC1` [A46], the IC50 in assay [1] fell in the range of 0.3 to 3 µM.
As for `O=C1CCc2cc(Nc3ncc(Br)c(CCc4ccccc4)n3)ccc2N1` [A101], the IC50 in assay [1] was in the range of 0.3 to 3 µM.
On to `O=C1Cc2cc(Nc3ncc(C(F)(F)F)c(CCc4ccccc4)n3)ccc2N1` [A102], for which the IC50 in assay [1] lay in the range of 0.3 to 3 µM.
`O=C1CCc2cc(Nc3ncc(C(F)(F)F)c(CCc4ccccc4)n3)ccc2N1` [A103]: the IC50 in assay [1] lay in the range of 0.3 to 3 µM.
